Experiment: Measurement of copper on hair after shampoo / rinse-off conditioner / leave-on treatment regimen (ICP-OES)
Conditions: after 20 regimen cycles, compared to control conditioning shampoo/control rinse-off conditioner
Procedure: All testing are performed on colored hair switches (see Method of Measurement of copper on hair below) weighing approximately 4.0 grams and having a length of approximately 6 inches. The hair switches are commercially available from IHIP (International Hair Importers). Three hair switches per shampoo composition are used. An amount of […] of shampoo is spread via a syringe onto separate hair switch. That is, the dosage is 0.10 g of shampoo per g of hair. Each application consists of adding shampoo to the hair, milking for 30 seconds followed by rinsing for 30 seconds. Shampoo is then reapplied (0.1 g/g), milked for 30 seconds and rinsed for 30 seconds. Excess water is squeezed from the hair switches and left to air dry or treated with a rinse-off conditioner and/or a leave-on treatment composition. […]
In several cases during this inventigation, the rinse-off conditioner treatment is followed by hair treatment with a leave-on treatment composition. Specifically, the appropriate quantity of the leave-on treatment composition is uniformely sprayed or spread onto separate hair switches (dosage of 0.10 g of solution per g of hair). […]
Samples of 100 mg of hair were digested overnight with 2 ml of high purity concentrated nitric acid. […] Copper content of the hair switches was determined by inductively coupled plasma atomic spectroscopy (ICP-OES)). For each leg, 3 different samples were analyzed. […]

With NCCNCCNCCN [2,3-Triethylenetetramine] the “Removal of copper from hair (in words)” value was “effective removal of copper from hair”.

— patent publication US10973744B2, “Conditioner composition comprising a chelant” (The Procter & Gamble Company, priority 2016, dated 2021)
